# Measured values published in patent publication US6787541B1, “Thieno-and furopyrimidine derivatives as A2A-receptor antagonists” (Vernalis Research Limited, priority 1999, dated 2004).
# pKi: −log10 of the molar value. Structures can show the parent of a compound that is named as a salt.
# Biological target: T1, human adenosine A2A receptors expressed in HEK-293 cells (Homo sapiens, UniProt P29274)
# T1 construct: expressed in transfected cells; host or cells: HEK-293 cells
# Test: Binding affinities at hA2A receptors, displacement of [3H]-CGS 21680
# T1 sequence (P29274 whole entry): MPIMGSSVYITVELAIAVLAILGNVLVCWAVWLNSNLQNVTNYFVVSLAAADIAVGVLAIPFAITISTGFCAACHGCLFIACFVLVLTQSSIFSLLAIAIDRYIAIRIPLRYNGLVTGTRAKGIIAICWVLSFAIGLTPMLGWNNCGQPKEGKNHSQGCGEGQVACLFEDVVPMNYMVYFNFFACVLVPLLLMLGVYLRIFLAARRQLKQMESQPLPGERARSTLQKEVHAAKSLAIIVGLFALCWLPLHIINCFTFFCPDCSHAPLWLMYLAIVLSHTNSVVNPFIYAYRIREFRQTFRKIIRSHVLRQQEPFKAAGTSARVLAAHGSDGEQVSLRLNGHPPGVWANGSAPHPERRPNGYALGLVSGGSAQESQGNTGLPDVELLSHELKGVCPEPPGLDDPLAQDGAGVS
row,pKi,SMILES
1,8.52,"CC(CO)Nc1nc(C(=O)c2cccs2)c2sccc2n1 (racemic) [Example 89, (2RS)-2-(1-Hydroxy-2-propylamino)thieno[3,2-d]pyrimidin-4-yl 2-thienylmethanone]"
2,8.15,"O=C(c1cccs1)c1nc(NCC(O)CO)nc2ccsc12 (racemic) [Example 93, (2RS)-2-(2,3-Dihydroxypropylamino)thieno[3,2-d]pyrimidin-4-yl 2-thienylmethanone]"
3,7.11,"NCCNc1nc(C(=O)c2cccs2)c2sccc2n1 [Example 55, 2-(2-Aminoethylamino)thieno[3,2-d]pyrimidin-4-yl 2-thienylmethanone dihydrochloride]"
4,7.82,"CNc1nc(C(=O)c2cccs2)c2sccc2n1 [Example 58, 2-Methylaminothieno[3,2-d]pyrimidin-4-yl thienylmethanone]"
5,6.66,"CN(C)CCNc1nc(C(=O)c2cccs2)c2sccc2n1 [Example 66, 2-(2-Dimethylaminoethylamino)thieno[3,2-d]pyrimidin-4-yl 2-thienylmethanone dihydrochloride]"
6,6.33,"CCCc1nc(C(O)c2cccs2)c2sccc2n1 (stereo not drawn) [Example 67, 2-n-Propyl-α-(2-thienyl)thieno[3,2-d]pyrimidine-4-methanol]"
7,6.07,"CN(C)c1nc(C(=O)c2cccs2)c2scc(-c3ccco3)c2n1 [Example 79, 2-Dimethylamino-7-(2-furyl)thieno[3,2-d]pyrimidin-4-yl 2-thienylmethanone]"

# Test system: not given
# Test: not given
row,SMILES,melting point
1,Cc1ccc(C(=O)c2nc(C(F)(F)F)nc3ccsc23)s1,161 to 163 °C
2,"NCCNc1nc(C(=O)c2cccs2)c2sccc2n1 (as salt: hydrochloride) [Example 55, 2-(2-Aminoethylamino)thieno[3,2-d]pyrimidin-4-yl 2-thienylmethanone dihydrochloride]",> 190 °C (dec.)
3,"CN(C)CCNc1nc(C(=O)c2cccs2)c2sccc2n1 (as salt: hydrochloride) [Example 66, 2-(2-Dimethylaminoethylamino)thieno[3,2-d]pyrimidin-4-yl 2-thienylmethanone dihydrochloride]",> 150 °C (dec.)
4,"O=C(c1cccc(Cl)c1)c1nc(C(F)(F)F)nc2ccsc12 [Example 9, 3-Chlorophenyl 2-trifluoromethylthieno[3,2-d]pyrimidin-4-ylmethanone]",128 to 130 °C
5,"O=C(c1cc(Cl)cc(Cl)c1)c1nc(C(F)(F)F)nc2ccsc12 [Example 10, 3,5-Dichlorophenyl 2-trifluoromethylthieno[3,2-d]pyrimidin-4-ylmethanone]",147 to 149 °C
6,"O=C(c1cc2ccccc2o1)c1nc(C(F)(F)F)nc2ccsc12 [Example 15, 2-Benzofuranyl 2-trifluoromethylthieno[3,2-d]pyrimidin-4-ylmethanone]",221 to 223 °C
7,"Cc1csc2c(C(=O)c3cccs3)nc(Cl)nc12 [Example 24, 2-Chloro-7-methylthieno[3,2-d]pyrimidin-4-yl 2-thienylmethanone]",188 to 190 °C
8,"COc1ccc(C(=O)c2nc(C(F)(F)F)nc3ccsc23)cc1 [Example 27, 4-Methoxyphenyl 2-trifluoromethylthieno[3,2-d]pyrimidin-4-ylmethanone]",155 to 157 °C
9,"O=C(c1ccc(Cl)cc1)c1nc(C(F)(F)F)nc2ccsc12 [Example 30, 4-Chlorophenyl 2-trifluoromethylthieno[3,2-d]pyrimidin-4-ylmethanone]",127 to 128 °C
10,"O=C(c1ccc([N+](=O)[O-])cc1)c1nc(C(F)(F)F)nc2ccsc12 [Example 31, 4-Nitrophenyl 2-trifluoromethylthieno[3,2-d]pyrimidin-4-ylmethanone]",185 to 186 °C
11,"Cc1cccc(C(=O)c2nc(C(F)(F)F)nc3ccsc23)c1 [Example 32, 3-Methylphenyl 2-trifluoromethylthieno[3,2-d]pyrimidin-4-ylmethanone]",131 to 133 °C
12,"CCc1nc(C(O)c2cccs2)c2sccc2n1 (stereo not drawn) [Example 36, 2-Ethyl-α-(2-thienyl)thieno[3,2-d]pyrimidine-4-methanol]",147 to 149 °C
13,"Cc1csc2c(C(=O)c3cccs3)nc(N(C)C)nc12 [Example 38, 2-Dimethylamino-7-methylthieno[3,2-d]pyrimidin-4-yl 2-thienylmethanone]",156 to 158 °C
14,"OC(c1cccs1)c1nc(C(F)(F)F)nc2ccsc12 (stereo not drawn) [Example 41, α-(2-Thienyl)-2-trifluoromethylthieno[3,2-d]pyrimidine-4-methanol]",157 to 158 °C
15,"Cc1nc(C(O)c2cccs2)c2sccc2n1 (stereo not drawn) [Example 53, 2-Methyl-α-(2-thienyl)thieno[3,2-d]pyrimidine-4-methanol]",144 to 146 °C
16,"Cc1c(C(=O)c2nc(C(F)(F)F)nc3ccsc23)sc2ccccc12 [Example 62, 3-Methylbenzothiophene-2-yl 2-trifluoromethylthieno[3,2-d]pyrimidin-4-ylmethanone]",262 to 263 °C
17,"CC(=O)NCCNc1nc(C(=O)c2cccs2)c2sccc2n1 [Example 90, N-(2-(4-(2-Thienylcarbonyl)thieno[3,2-d]pyrimidin-2-yl)aminoethyl)acetamide]",212.2 to 212.5 °C
18,"O=C(c1cccs1)c1nc(NCc2ccco2)nc2ccsc12 [Example 96, 2-(2-Furylmethylamino)thieno[3,2-d]primidin-4-yl 2-thienylmethanone]",> 140 °C (dec.)
19,"CN(C)c1nc(C(=O)c2ccco2)c2sccc2n1 [Example 105, 2-Dimethylaminothieno[3,2-d]pyrimidin-4-yl 2-furylmethanone]",210 to 212 °C
20,"O=C(c1cccnc1)c1nc(NCCO)nc2ccsc12 [Example 106, 2-(2-Hydroxyethylamino)thieno[3,2-d]pyrimidin-4-yl 3-pyridylmethanone]",161 to 163 °C
21,"O=C(c1cccs1)c1nc(N2CCCC2)nc2ccsc12 [Example 109, 2-(Pyrrolidin-1-yl)thieno[3,2-d]pyrimidin-4-yl 2-thienylmethanone]",229.1 to 229.4 °C
22,"COC(=O)[C@@H]1CCCN1c1nc(C(=O)c2cccs2)c2sccc2n1 [Example 115, (2S)-N-(4-(2-Thienylcarbonyl)thieno[3,2-d]pyrimidin-2-yl)proline methyl ester]",155.9 to 156.3 °C
23,"Cc1ccsc1C(=O)c1nc(N(C)C)nc2ccsc12 [Example 117, 2-Dimethylaminothieno[3,2-d]pyrimidin-4-yl 3-methyl-2-thienylmethanone]",165.1 to 165.7 °C
24,"CC(C)(CO)Nc1nc(C(=O)c2cccs2)c2sccc2n1 [Example 119, 2-(1-Hydroxy-2-methyl-2-propylamino)thieno[3,2-d]pyrimidin-4-yl 2-thienylmethanone]",126.4 to 127.1 °C

# Further lines, results first:
row,melting point,SMILES
1,151 °C,"CN(C)CC(=O)Nc1nc(C(=O)c2cccs2)c2sccc2n1 (as salt: hydrochloride) [Example 169, 2-Dimethylamino-N-(4-(2-thienylcarbonyl)thieno[3,2-d]pyrimidin-2-yl)acetamide hydrochloride]"
2,151.6 to 152.4 °C,"CN(CCN)c1nc(C(=O)c2cccs2)c2sccc2n1 [Example 120, 2-(N-(2-Aminoethyl)-N-methylamino)thieno[3,2-d]pyrimidin-4-yl 2-thienylmethanone]"
3,> 131 °C (dec.),"O=C(c1cccs1)c1nc(N2CCC[C@@H]2C(=O)O)nc2ccsc12 [Example 121, (2R)-N-(4-(2-Thienylcarbonyl)thieno[3,2-d]pyrimidin-2-yl)proline]"
4,185.7 to 186.2 °C,"CCOC(=O)c1nc(C(=O)c2cccs2)c2sccc2n1 [Example 122, Ethyl 4-(2-thienylcarbonyl)thieno[3,2-d]pyrimidin-2-carboxylate]"
5,144.6 to 145.2 °C,"COC(=O)CNc1nc(C(=O)c2cccs2)c2sccc2n1 [Example 123, Methyl (4-(2-thienylcarbonyl)thieno[3,2-d]pyrimidin-2-ylamino)acetate]"
6,232.1 to 233.7 °C,"NC(=O)CNc1nc(C(=O)c2cccs2)c2sccc2n1 [Example 125, (4-(2-Thienylcarbonyl)thieno[3,2-d]pyrimidin-2-ylamino)acetamide]"
7,232.8 to 233 °C,"COC(=O)c1nc(C(=O)c2cccs2)c2sccc2n1 [Example 126, Methyl 4-(2-thienylcarbonyl)thieno[3,2-d]pyrimidin-2-carboxylate]"
8,242.1 to 242.7 °C,"CS(=O)(=O)NNc1nc(C(=O)c2cccs2)c2sccc2n1 [Example 128, Methanesulphonic acid 2-(4-(2-thienylcarbonyl)thieno[3,2-d]pyrimidin-2-yl)hydrazide]"
9,96.2 to 96.9 °C,"Cc1ccsc1C(=O)c1nc(N2CCC[C@@H]2CO)nc2ccsc12 [Example 129, (2R)-2-(2-Hydroxymethylpyrrolidin-1-yl)thieno[3,2-d]pyrimidin-4-yl 3-methyl-2-thienylmethanone]"
10,258.3 to 259 °C,"CC(=O)NNc1nc(C(=O)c2cccs2)c2sccc2n1 [Example 130, Acetic acid 2-(4-(2-thienylcarbonyl)thieno[3,2-d]pyrimidin-2-yl)hydrazide]"
11,252.8 to 253.3 °C,"C=CCNC(=O)NNc1nc(C(=O)c2cccs2)c2sccc2n1 [Example 131, N-Allyl-2-(4-(2-thienylcarbonyl)thieno[3,2-d]pyrimidin-2-yl)hydrazinecarboxamide]"
12,138.1 to 138.7 °C,"Cc1ccsc1C(=O)c1nc(NCCCn2ccnc2)nc2ccsc12 [Example 132, 2-(3-(1H-imidazol-1-yl)propylamino)thieno[3,2-d]pyrimidin-4-yl 3-methyl-2-thienylmethanone]"
13,143.6 to 144.7 °C,"CN(C)CCNC(=O)c1nc(C(=O)c2cccs2)c2sccc2n1 [Example 134, N-(2-Dimethylaminoethyl)-4-(2-thienylcarbonyl)thieno[3,2-d]pyrimidin-2-carboxamide]"
14,173.1 to 174 °C,"CN(C)C(=O)c1nc(C(=O)c2cccs2)c2sccc2n1 [Example 136, N,N-Dimethyl-4-(2-thienylcarbonyl)thieno[3,2-d]pyrimidin-2-carboxamide]"
